{"source": "BigSolDB 2.1", "data": [{"smiles": "C[C@H](O)[C@@H](O)[C@@H](O)[C@H](O)C=O", "values": [{"measurement": "solubility (mole fraction)", "setting": "in acetone, 288.15 K", "value": 0.00023}, {"measurement": "solubility (mole fraction)", "setting": "in acetone, 293.15 K", "value": 0.00025}, {"measurement": "solubility (mole fraction)", "setting": "in acetone, 298.15 K", "value": 0.00028}, {"measurement": "solubility (mole fraction)", "setting": "in acetone, 303.15 K", "value": 0.00032}, {"measurement": "solubility (mole fraction)", "setting": "in acetone, 308.15 K", "value": 0.00038}, {"measurement": "solubility (mole fraction)", "setting": "in ethanol, 288.15 K", "value": 0.00032}, {"measurement": "solubility (mole fraction)", "setting": "in ethanol, 293.15 K", "value": 0.00038}, {"measurement": "solubility (mole fraction)", "setting": "in ethanol, 298.15 K", "value": 0.00043}, {"measurement": "solubility (mole fraction)", "setting": "in ethanol, 303.15 K", "value": 0.00057}, {"measurement": "solubility (mole fraction)", "setting": "in ethanol, 308.15 K", "value": 0.00071}, {"measurement": "solubility (mole fraction)", "setting": "in isopropanol, 288.15 K", "value": 0.00014}, {"measurement": "solubility (mole fraction)", "setting": "in isopropanol, 293.15 K", "value": 0.00024}, {"measurement": "solubility (mole fraction)", "setting": "in isopropanol, 298.15 K", "value": 0.00032}, {"measurement": "solubility (mole fraction)", "setting": "in isopropanol, 303.15 K", "value": 0.00043}, {"measurement": "solubility (mole fraction)", "setting": "in isopropanol, 308.15 K", "value": 0.00056}, {"measurement": "solubility (mole fraction)", "setting": "in methanol, 288.15 K", "value": 0.00216}, {"measurement": "solubility (mole fraction)", "setting": "in methanol, 293.15 K", "value": 0.00244}, {"measurement": "solubility (mole fraction)", "setting": "in methanol, 298.15 K", "value": 0.00275}, {"measurement": "solubility (mole fraction)", "setting": "in methanol, 303.15 K", "value": 0.00307}, {"measurement": "solubility (mole fraction)", "setting": "in methanol, 308.15 K", "value": 0.00345}, {"measurement": "solubility (mole fraction)", "setting": "in water, 288.15 K", "value": 0.0512}, {"measurement": "solubility (mole fraction)", "setting": "in water, 298.15 K", "value": 0.0979}, {"measurement": "solubility (mole fraction)", "setting": "in water, 303.15 K", "value": 0.129}, {"measurement": "solubility (mole fraction)", "setting": "in water, 308.15 K", "value": 0.174}]}]}
